Values quoted from earlier work as cited in US7329495B2 (Board of Regents, the University of Texas System, priority 2004, dated 2008).

Target: KIT protein (c-KIT K642E) (Homo sapiens, UniProt P10721, K642E)
Settings: human GIST cell line, homozygous exon 13 c-KIT K642E

Sequence of KIT protein (c-KIT K642E) (P10721 26-976 K642E): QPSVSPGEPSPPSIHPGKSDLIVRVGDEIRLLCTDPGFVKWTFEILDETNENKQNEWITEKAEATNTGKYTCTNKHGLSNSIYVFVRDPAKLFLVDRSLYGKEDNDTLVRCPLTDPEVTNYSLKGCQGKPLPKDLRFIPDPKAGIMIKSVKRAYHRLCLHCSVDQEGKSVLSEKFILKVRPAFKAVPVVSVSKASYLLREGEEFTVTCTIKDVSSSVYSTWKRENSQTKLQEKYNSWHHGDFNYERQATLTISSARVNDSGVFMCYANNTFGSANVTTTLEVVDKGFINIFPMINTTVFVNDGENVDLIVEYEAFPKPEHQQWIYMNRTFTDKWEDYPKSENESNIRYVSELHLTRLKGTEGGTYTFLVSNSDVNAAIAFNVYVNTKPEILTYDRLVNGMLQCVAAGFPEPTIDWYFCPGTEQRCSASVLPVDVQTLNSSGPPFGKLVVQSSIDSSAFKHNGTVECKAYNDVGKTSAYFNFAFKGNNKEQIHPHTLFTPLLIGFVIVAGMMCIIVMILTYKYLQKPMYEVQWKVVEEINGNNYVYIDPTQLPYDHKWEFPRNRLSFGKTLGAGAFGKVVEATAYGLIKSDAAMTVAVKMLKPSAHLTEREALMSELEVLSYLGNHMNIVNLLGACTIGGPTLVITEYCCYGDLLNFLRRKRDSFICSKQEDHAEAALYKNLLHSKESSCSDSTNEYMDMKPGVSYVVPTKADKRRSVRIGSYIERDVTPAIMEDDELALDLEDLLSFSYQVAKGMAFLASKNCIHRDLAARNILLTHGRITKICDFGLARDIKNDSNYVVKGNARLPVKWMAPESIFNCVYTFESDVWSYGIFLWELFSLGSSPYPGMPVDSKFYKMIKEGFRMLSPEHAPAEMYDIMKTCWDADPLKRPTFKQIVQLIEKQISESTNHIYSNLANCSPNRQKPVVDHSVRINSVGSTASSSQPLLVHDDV

constitutive KIT tyrosine phosphorylation after introducing STI571 to the cells: abolished
Compound: Cc1ccc(NC(=O)c2ccc(CN3CCN(C)CC3)cc2)cc1Nc1nccc(-c2cccnc2)n1 [imatinib]
